Results: article PMC2693909 (Journal of molecular biology, 2009)

Biological target: Hsc70 NBD (Hsc-70-NBD) (Bos taurus, UniProt P19120)
Assay: […]-1H NMR chemical shift differences, ATP versus ADP.Pi state
Type: binding
Settings: neutral aqueous solution

Sequence of Hsc70 NBD (Hsc-70-NBD) (P19120 1-383 limits assumed): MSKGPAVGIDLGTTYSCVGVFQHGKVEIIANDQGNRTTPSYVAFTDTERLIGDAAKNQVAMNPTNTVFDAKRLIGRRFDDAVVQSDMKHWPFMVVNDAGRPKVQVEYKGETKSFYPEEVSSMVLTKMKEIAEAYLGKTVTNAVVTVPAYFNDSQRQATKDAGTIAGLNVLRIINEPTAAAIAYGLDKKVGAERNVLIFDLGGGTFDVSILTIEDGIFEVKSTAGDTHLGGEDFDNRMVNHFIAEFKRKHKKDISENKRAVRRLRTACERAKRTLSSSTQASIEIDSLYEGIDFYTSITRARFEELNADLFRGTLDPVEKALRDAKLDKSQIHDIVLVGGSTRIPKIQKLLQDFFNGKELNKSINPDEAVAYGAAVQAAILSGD

Row | SMILES | 15N-1H NMR chemical shift differences, ATP versus ADP.Pi state (ADP.Pi state) | 15N-1H NMR chemical shift differences, ATP versus ADP.Pi state (ATP state)
1 | Nc1ncnc2c1ncn2[C@@H]1O[C@H](COP(=O)(O)OP(=O)(O)O)[C@@H](O)[C@H]1O [ADP] | NMR spectra of the isolated NBD of Hsc70 between the ADP.Pi and ATP state | 
2 | Nc1ncnc2c1ncn2[C@@H]1O[C@H](COP(=O)(O)OP(=O)(O)OP(=O)(O)O)[C@@H](O)[C@H]1O [ATP] |  | NMR spectra of the isolated NBD of Hsc70 between the ADP.Pi and ATP state
